The values below are quoted from earlier work in patent US20240199640A1, “NEGATIVE ALLOSTERIC MODULATORS OF METABOTROPIC GLUTAMATE RECEPTOR 2” (priority 2021, published 2024).

Read-outs that look alike come from different tables or passages of the source.

Data set [1] concerns group II mGlu receptors. The following applies: cited from earlier work.
The subject of data set [2] is Helpless (H) mice. The following applies: cited from earlier work; for activity in the tail suspension test: Helpless (H) mice.
Data set [3] deals with mouse. The following applies: normal animals; cited from earlier work.
Data set [4] deals with C57Bl6/J mice. Particulars: cited from earlier work.
The test system of data set [5] is Aβ-induced neurodegeneration. Particulars: cited from earlier work.
Data set [6] deals with rat. The following applies: normal animals; cited from earlier work.
For data set [7], the system named is mice. Particulars: treated mice; cited from earlier work.
In data set [8] the test system is central mGlu2 and mGlu3 receptors. The following applies: in vivo; cited from earlier work.
The test system of data set [9] is olfactory bulbectomized rats. Particulars: repeated administration for 14 days; cited from earlier work.
The conditions of data set [10]: treatment for 7 days; cited from earlier work.
The subject of data set [11] is social isolation-reared mice. Particulars: cited from earlier work.
The conditions of data set [12]: conditioned fear stress; cited from earlier work.

On to `N[C@]1(C(=O)O)[C@H]2[C@@H](C[C@H]1OCc1ccc(Cl)c(Cl)c1)[C@]2(F)C(=O)O` [BCI-632], for which the “time for which brain concentration was sufficient to inhibit group II mGlu receptors” value in data set [1] (active metabolite after once-daily oral dosing of prodrug BCI-838) is 22 h.

As for `CCCCCCCOC(=O)[C@@]1(F)[C@@H]2C[C@@H](OCc3ccc(Cl)c(Cl)c3)[C@@](N)(C(=O)O)[C@@H]21` [BCI-838], in data set [1] (three months of treatment, two AD mouse models), the “levels of monomeric and oAβ peptides in the hippocampus and cortex” value is “decreased”. In data set [1] (three months of treatment), the “Dutch APP transgene-associated learning and memory impairment” value is reported as “reversed”; the anxiolytic effects result is given as “anxiolytic effects”. Moreover, in [1] (wild-type and Alzheimer's diseased mice, 3 months), the “hippocampal progenitor cell proliferation” value is reported as “stimulated”.

Take `N[C@](CC1c2ccccc2Oc2ccccc21)(C(=O)O)[C@H]1C[C@@H]1C(=O)O` [LY341495]: the “activity in the tail suspension test” value in data set [2] is listed as “active”. For the same compound, the “antidepressant effect in helpless mice” value in data set [2] (acute administration) was “potent antidepressant effect”. Moreover, the “Antidepressant-like effects in mouse tail-suspension test” value in [3] was “Antidepressant-like effects”. Besides, the “immobility time in the FST” value in data set [4] was “dose-dependently reduced”. Also, the Aβ-induced neurodegeneration entry in [5] is listed as “prevented”. The “Antidepressant-like effects in rat forced swim test” value in data set [6] is recorded as “Antidepressant-like effects”. Moreover, in data set [7], the marble-burying behavior result is “significantly reduce”. Moreover, the “hypolocomotor effect of mGlu2/3 agonist (LY379268)” value in [8] is listed as “achieved the same result”.

Regarding `CCS(=O)(=O)N(Cc1cccnc1)c1cccc(-c2ccc(C#N)cc2)c1` [LY566332], the Aβ-induced neurodegeneration entry in [5] is recorded as “amplified”.

With `N[C@]1(C(=O)O)[C@H]2[C@@H](C[C@H]1OCc1ccc(Cl)c(Cl)c1)[C@]2(F)C(=O)O` [MGS0039], the “Antidepressant-like effects in mouse tail-suspension test” value in data set [3] is reported as “Antidepressant-like effects”. In data set [9], the “hyperactivity in the open field test” value is “attenuated” and the “learning deficit in the passive avoidance test” value is “attenuated”. Further, in [10], the “number of escape failures” value is “significantly reduced”. In data set [6], the “Antidepressant-like effects in rat forced swim test” value was “Antidepressant-like effects”. Besides, in data set [11], the “increased immobility in the FST” value is recorded as “reversed”. For the same compound, in data set [7], the marble-burying behavior result is “reduced” and the spontaneous locomotor activity result is “no significant change”. In addition, the freezing behavior entry in data set [12] was “significantly decreased”.

Turning to `Cc1cc(-c2cccc(C3=Nc4cc(C)c(C(F)(F)F)cc4NC(=O)C3)c2)cc(C)n1` [RO4491533], the “activity in the tail suspension test” value in data set [2] is given as “active”. Besides, the “immobility time in the FST” value in data set [4] is listed as “dose-dependently reduced”. The “hypolocomotor effect of mGlu2/3 agonist (LY379268)” value in [8] is “reversed”.

For the compound `CN1C(=O)CN=C(c2ccccc2)c2cc(Cl)ccc21` [diazepam], the freezing behavior entry in data set [12] is “significantly decreased”.

Take `CNCCC(Oc1ccc(C(F)(F)F)cc1)c1ccccc1` (stereo not shown) [fluoxetine]: the “antidepressant effect in helpless mice” value in data set [2] (chronic (21 days) treatment) is “full antidepressant effect”.
